Reference: patent US20250136563A1, “THIADIAZOLONE DERIVATIVES USEFUL AS AMPK ACTIVATOR” (Betagenon AB, priority 2021, published 2025)
“Also recorded” adds a separate entry of the source. Counter-ions that a name gives are not always drawn. Like-named read-outs stand apart in the source and are kept apart here.

Columns and labels:
[1] = Stability in buffers pH 1.20, 7.40 and 9.20 (Examples 26 and 27)
Protocol: (§1) The stability of Compound 17 was assessed in buffers with pH 1.20, 7.40 and 9.20. The pH 1.20 study was conducted using an HCl buffer. A phosphate buffer was used for the pH 7.40 medium, and an alkaline borate buffer was used for the pH 9.20 medium.
(§2) HCl buffer—Potassium chloride (1.491 g) was dissolved in 100 mL of Ultrapure water type-1 to get 0.2 M KCl solution. About 50 mL of 0.2 M KCl was taken in a beaker and the pH was adjusted to 1.20 using 0.2 M HCl solution. The final volume was made up to 200 mL using Ultrapure water type-1 and stored at room temperature (22±3° C.).
(§3) Phosphate buffer—Potassium phosphate monobasic (2.722 g) was dissolved in 100 mL of Ultrapure water type-1 to get 0.2 M solution. About 50 mL of 0.2 M solution was taken in a beaker and the pH was adjusted to 7.40 using 0.2 M NaOH solution. The final volume was made up to 200 mL using Ultrapure water type-1 and stored at room temperature (22±3° C.).
(§4) Alkaline borate buffer—Boric acid (1.237 g) and potassium chloride (1.491 g) were dissolved in 100 mL of Ultrapure water type-1 to get 0.2 M solution. About 50 mL of 0.2 M solution was taken in beaker and the pH was adjusted to 9.20 using 0.2 M NaOH solution. The final volume was made up to 200 mL using Ultrapure water type-1 and stored at room temperature (22±3° C.).
(§5) 5 μM solutions of Compound 17 in each buffer were prepared with 5 mM DMSO stock solutions. The solutions were incubated at 22 t 3° C. for 120 minutes, with shaking at 400 rpm using a thermomixer.
(§6) After 0, 15, 30, 60 and 120 minute intervals, aliquots of sufficient volume of the compound solutions were taken, diluted and analysed to determine the stability of Compound 17 in each solution, as well as the amount of Compound 1 present. The amount of Compound 1 present was compared to the amount expected assuming full conversion of Compound 17 to Compound 1.
(§7) The stability of Compounds 3, 6, 9, 20 and 23 was tested using the same methods as described above for Compound 17.

[2] = Single dose oral pharmacokinetic study of Compounds 5, 6, 7, 9, 10, 13, 14, 16 and 17 in Sprague Dawley rats; assay type: in vivo
Protocol: 10.0 mL of 2% w/v methyl cellulose solution in phosphate buffer (pH 7.5) was added to a 100 mL conical flask along with 1 g of 2 mm glass beads. The solution was vigorously stirred on a magnetic stirrer. 100 mg of Compound 1 was slowly added to the solution, and the solution was vigorously stirred for approximately 1 h. The pH of the formulation was measured to be 7.49. Each formulation was freshly prepared prior to administration to the animals. The final concentration of Compound 1 in of the formulation was 10 mg/mL. The formulation was administered at 5 mL/kg body weight. […]
Adult healthy male Sprague Dawley rats aged 8 to 10 weeks were used for experimentation after a minimum three days of acclimatization. Fed state animals were administered the formulation of Compound 1 or Compound 3 orally via gavage at a dose of 50 mg/kg or 65 mg/kg body weight, respectively.
Under mild isoflurane anesthesia, blood specimens were collected by retro-orbital puncture method using capillary tubes into pre-labeled tubes containing anticoagulant (K2EDTA: 2 mg/mL blood) during the next 72 hours post-dosing, as detailed in Table 6. For blood sampling at multiple time points, the right and left eyes were used alternatively. Collected blood specimens were centrifuged at 6000 rpm, 4° C. for 10 minutes and the plasma samples were separated and stored at −80° C. until analysis.
Formulations were prepared in accordance with the method described in Example 19.
Doses equivalent to 50 mg/kg of Compound 1 were selected for comparison of equimolar doses.
The administration and blood sampling were performed as described in Example 19.
The results for the single dose oral pharmacokinetic study in rats are tabulated in Tables 7 and below and are shown graphically in FIG. 3. In Table 7, the Cmax, Tmax, AUClast, AUCinf, AUCextrap and T1/2 values are for 4-chloro-N-[2-[(4-chlorophenyl)methyl]-3-oxo-1,2,4-thiadiazol-5-yl]benzamide (Compound 1), which was detected following the administration of the compounds.

[3] = for % remaining after 15 min / % remaining after 30 min: buffer; for % remaining after 15 min: 0.25 h; for % remaining after 30 min: 0.5 h
Protocol: as §1, §2, §3, §4, §5, §6, §7

[4] = mice; Das et al. 2019; cited from earlier work
[5] = Stability in HCl buffer (pH 1.20), 37° C.; assay type: physicochemical; details: HCl buffer pH 1.20, 37° C.
Protocol: 5 μM solutions of Compound 1 and Compound 4 (i.e. the citric acid salt of Compound 3) in HCl buffer (pH: 1.20) were prepared with 5 mM DMSO stock solutions.

[6] = analyte Compound 1 in plasma, oral, dose equivalent to 50 mg/kg of Compound 1

## NCCCCC(N)C(=O)OCN1C(=O)N(Cc2ccc(Cl)cc2)SC1NC(=O)c1ccc(Cl)cc1.O=C(O)C(F)(F)F.O=C(O)C(F)(F)F (centres unmarked) [Compound 6, 6-{[5-(4-chlorobenzamido)-2-[(4-chlorophenyl)methyl]-3-oxo-1,2,4-thiadiazolidin-4-yl]methoxy}-6-oxohexane-1,5-bis(aminium) di-trifluoroacetate]
[1]; buffer pH 1.2
  % remaining after 15 min: 83%
  % remaining after 30 min: 86%
[1]; buffer pH 7.4
  % remaining after 15 min: 33%
  % remaining after 30 min: 33%

## 2-({[5-(4-chlorobenzamido)-2-[(4-chlorophenyl)methyl]-3-oxo-1,2,4-thiadiazolidin-4-yl]methoxy}carbonyl)-1-methylpyrrolidine [Compound 10]
[2]; 0.00 h post-dose, oral, equivalent to 50 mg/kg of Compound 1
  Plasma Concentration of Compound 1: 0.00 µg/mL
[2]; 1.00 h post-dose
  Plasma Concentration of Compound 1: 76.70 µg/mL
[2]; 4.00 h post-dose
  Plasma Concentration of Compound 1: 106.37 µg/mL
[2]; 8.00 h post-dose
  Plasma Concentration of Compound 1: 100.53 µg/mL
[2]; 24.00 h post-dose
  Plasma Concentration of Compound 1: 26.77 µg/mL
[2]; [6]
  AUCextrap: 17.81%
  AUCinf: 2120.39 µg·h/mL
  AUClast: 1745.15 µg·h/mL
  Cmax: 114.03 µg/mL
  T1/2: 9.63 h
  Tmax: 5.33 h

## [azaniumyl({[(4S)-4-azaniumyl-4-[(2-{[5-(4-chlorobenzamido)-2-[(4-chlorophenyl)methyl]-3-oxo-1,2,4-thiadiazolidin-4-yl]methoxy}-2-oxoethyl)carbamoyl]butyl]amino})methylidene]azanium Trichloride [Compound 23]
[3]; pH 1.2
  % remaining after 15 min: 78%
  % remaining after 30 min: 77%
  stability at pH 1.2 (in words): relatively stable
[3]; pH 7.4
  % remaining after 15 min: 0%
  % remaining after 30 min: 0%
  stability at pH 7.40 and above (in words): degrade rapidly

## CN(C)C(=N)N=C(N)N [metformin]
[4]
  treating pain (in words): effective at treating pain

## NCC(=O)OCn1c(=O)n(Cc2ccc(Cl)cc2)s/c1=N\C(=O)c1ccc(Cl)cc1 [Compound 9, Trifluoroacetate]
[1]; buffer pH 1.2
  % remaining after 15 min: 100%
  % remaining after 30 min: 100%
[1]; buffer pH 7.4
  % remaining after 15 min: 46%
  % remaining after 30 min: 13%

## O=C(Nc1nc(=O)n(Cc2ccc(Cl)cc2)s1)c1ccc(Cl)cc1 [Compound 1, 4-chloro-N-[2-[(4-chlorophenyl)methyl]-3-oxo-1,2,4-thiadiazol-5-yl]benzamide, reference compound]
[5]; 0.0 min
  % remaining compared to 0.0 min: 100.00%
[5]; 15 min
  % remaining compared to 0.0 min: 71.32%
[5]; 30 min
  % remaining compared to 0.0 min: 63.05%
[5]; 60 min
  % remaining compared to 0.0 min: 58.77%
[5]; 120 min
  % remaining compared to 0.0 min: 43.04%
[4]
  treating pain (in words): effective at treating pain

## NC(CC(=O)O)C(=O)OCn1c(=O)n(Cc2ccc(Cl)cc2)s/c1=N/C(=O)c1ccc(Cl)cc1 (centres unmarked) [Compound 17, Trifluoroacetate]
[1]; buffer pH 1.2
  % remaining after 15 min: 76%
  % remaining after 30 min: 82%
[1]; buffer pH 7.4
  % remaining after 15 min: 0%
  % remaining after 30 min: 0%
[1]; pH 1.20, 0.0 min
  Percentage of Compound 17 remaining compared to 0 minutes: 100.00
[1]; pH 1.20, 15.0 min
  Percentage of Compound 17 remaining compared to 0 minutes: 76.19
[1]; pH 1.20, 30.0 min
  Percentage of Compound 17 remaining compared to 0 minutes: 82.37
[1]; pH 1.20, 60.0 min
  Percentage of Compound 17 remaining compared to 0 minutes: 73.33
[1]; pH 1.20, 120.0 min
  Percentage of Compound 17 remaining compared to 0 minutes: 79.04
[1]; pH 1.2, Trifluoroacetate
  stability at pH 1.2 (in words): greatest stability; also recorded: relatively stable
[1]; pH 7.40, 0.0 min
  Percentage of Compound 17 remaining compared to 0 minutes: 100.00
[1]; pH 7.40, 15.0 min
  Percentage of Compound 17 remaining compared to 0 minutes: 0.13
[1]; pH 7.40, 30.0 min
  Percentage of Compound 17 remaining compared to 0 minutes: 0.39
[1]; pH 7.40, 60.0 min
  Percentage of Compound 17 remaining compared to 0 minutes: 0.47
[1]; pH 7.40, 120.0 min
  Percentage of Compound 17 remaining compared to 0 minutes: 2.33
[1]; pH 7.40 / higher pH, Trifluoroacetate
  stability at pH 7.40 and above (in words): degrade rapidly; also recorded: very low
[1]; pH 9.20, 0.0 min
  Percentage of Compound 17 remaining compared to 0 minutes: 100.00
[1]; pH 9.20, 15.0 min
  Percentage of Compound 17 remaining compared to 0 minutes: 0.00
[1]; pH 9.20, 30.0 min
  Percentage of Compound 17 remaining compared to 0 minutes: 0.00
[1]; pH 9.20, 60.0 min
  Percentage of Compound 17 remaining compared to 0 minutes: 0.00
[1]; pH 9.20, 120.0 min
  Percentage of Compound 17 remaining compared to 0 minutes: 0.00
